Assay results: patent publication US9770026B2, “Substituted pyrimidine compound and uses thereof” (Shenyang Sinochem Agrochemicals R&D Co., Ltd., priority 2012, dated 2017)

Assays:
cucumber downy mildew = assay: protectant activity in vivo against cucumber downy mildew
armyworm = assay: bioactivity test against armyworm, airbrush spray; type: in vivo; conditions: for control (test results against armyworm): mortality after 72 h
corn rust = assay: protectant activity in vivo against corn rust
Diamond back moth = assay: insecticidal activity against diamond back moth, airbrush spray; type: in vivo; conditions: for control (test results against diamond back moth): mortality after 72 hrs
How it was run: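 Airbrush leaf-disc spray test: both faces of 2 cm cabbage discs received 0.5 ml of test solution at 0.7 kg/cm^2. Solutions were made in acetone:methanol (1:1) and brought to concentration with 0.1% Tween 80 in water. Ten second-instar larvae per disc, triplicates, were held at 25° C and 60˜70% R.H., with mortality recorded at 72 hrs.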

[1] = test system: Green peach aphids (Myzus Persicae Sulzer); assay: bioactivity test against green peach aphid, airbrush foliar spray; type: in vivo; conditions: for control (test results against green peach aphid): death rate after 48 hrs
How it was run: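 Aphids (15-30 per cabbage leaf disc) on moist filter paper were airbrush-sprayed at 10 psi, 0.5 mL, with compound from acetone:methanol (1:1) diluted in water with 0.1% tween 80. Held at 25±1 C, 60±5% RH; survivors counted after 48 hrs to give death rates.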

wheat powdery mildew = assay: protectant activity in vivo against wheat powdery mildew
carmine spider mite = assay: bioactivity test against carmine spider mite, airbrush spray; type: in vivo
How it was run: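 Broadbean seedlings infested with adult mites were sprayed with compound (acetone/methanol stock diluted in 0.1% Tween 80 water) by airbrush at 0.7 kg/cm^2, 0.5 ml. Three replicates were run. Mortality was scored after 72 hrs.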

[2] = 600 ppm, mortality after 72 hrs
[3] = 100 ppm, mortality after 72 hrs

COc1ccc(Oc2ccc(CCNc3ncnc(C)c3Cl)cn2)cc1 [III-19]
95%: control effect against cucumber downy mildew (%) (cucumber downy mildew; 6.25 mg/L, protectant activity)
100%: control effect against cucumber downy mildew (%) (cucumber downy mildew; 25 mg/L, protectant activity) | control effect against cucumber downy mildew (%) (cucumber downy mildew; 50 mg/L, protectant activity) | control effect against cucumber downy mildew (%) (cucumber downy mildew; 100 mg/L, protectant activity) | control effect against cucumber downy mildew (%) (cucumber downy mildew; 400 mg/L, protectant activity) | protectant activity against cucumber downy mildew in vivo (cucumber downy mildew; 25 ppm) | protectant activity against cucumber downy mildew in vivo (cucumber downy mildew; 50 ppm) | protectant activity against cucumber downy mildew in vivo (cucumber downy mildew; 100 ppm) | protectant activity against cucumber downy mildew in vivo (cucumber downy mildew; 400 ppm) | control (test results against armyworm) (armyworm; 600 ppm) | protectant activity against corn rust in vivo (corn rust; 400 ppm) | control (test results against diamond back moth) (Diamond back moth; 600 ppm) | control (test results against green peach aphid) ([1]; 600 ppm) | protectant activity against wheat powdery mildew in vivo (wheat powdery mildew; 400 ppm) | control against carmine spider mite (carmine spider mite; [2])
98%: control effect against cucumber downy mildew (%) (cucumber downy mildew; 12.5 mg/L, protectant activity)

FC(F)(F)c1cnc(Oc2ccc(CCNc3ncnc(Cl)c3Cl)cc2)c(Cl)c1 [CK72, reference compound]
55%: pest or weed control at 600 µg/mL ([1]; Myzus persicae, foliar, 48 h, 600 mg/L, contrastive test, read-out: Insecticidal activity against peach aphid (%))
50%: pest or weed control at 6.25 µg/mL (wheat powdery mildew; Triticum aestivum, 168 h, read-out: control effect against wheat powdery mildew (%), 6.25 mg/L, protectant activity)
100%: pest or weed control at 100 µg/mL (cucumber downy mildew; Cucumis sativus, 168 h, read-out: control effect against cucumber downy mildew (%), 100 mg/L, protectant activity) | pest or weed control at 400 µg/mL (cucumber downy mildew; Cucumis sativus, 168 h, read-out: control effect against cucumber downy mildew (%), 400 mg/L, protectant activity) | pest or weed control at 400 µg/mL (corn rust; Zea mays, 168 h, read-out: control effect against corn rust (%), 400 mg/L, protectant activity) | pest or weed control at 400 µg/mL (wheat powdery mildew; Triticum aestivum, 168 h, read-out: control effect against wheat powdery mildew (%), 400 mg/L, protectant activity)
13%: pest or weed control at 600 µg/mL (carmine spider mite; Tetranychus cinnabarinus, 72 h, 600 mg/L, contrastive test, read-out: Insecticidal activity against carmine spider mite (% ))
71%: pest or weed control at 600 µg/mL (armyworm; 72 h, 600 mg/L, read-out: Insecticidal activity against armyworm (%))
20%: pest or weed control at 25 µg/mL (cucumber downy mildew; Cucumis sativus, 168 h, read-out: control effect against cucumber downy mildew (%), 25 mg/L, protectant activity) | pest or weed control at 25 µg/mL (corn rust; Zea mays, 168 h, read-out: control effect against corn rust (%), 25 mg/L, protectant activity)
40%: pest or weed control at 50 µg/mL (cucumber downy mildew; Cucumis sativus, 168 h, read-out: control effect against cucumber downy mildew (%), 50 mg/L, protectant activity)
70%: pest or weed control at 100 µg/mL (wheat powdery mildew; Triticum aestivum, 168 h, read-out: control effect against wheat powdery mildew (%), 100 mg/L, protectant activity)
0%: pest or weed control at 6.25 µg/mL (corn rust; Zea mays, 168 h, read-out: control effect against corn rust (%), 6.25 mg/L, protectant activity) | pest or weed control at 600 µg/mL (Diamond back moth; 72 h, 600 mg/L)
80%: pest or weed control at 100 µg/mL (corn rust; Zea mays, 168 h, read-out: control effect against corn rust (%), 100 mg/L, protectant activity)
60%: pest or weed control at 25 µg/mL (wheat powdery mildew; Triticum aestivum, 168 h, read-out: control effect against wheat powdery mildew (%), 25 mg/L, protectant activity)

CCc1ncnc(NC(C)c2ccc(Oc3ccccc3)nc2)c1Cl (centres unmarked) [CK8, reference compound]
33%: Insecticidal activity against diamond back moth (%) (Diamond back moth; 600 mg/L)
0%: Insecticidal activity against peach aphid (%) ([1]; 600 mg/L, contrastive test) | control effect against wheat powdery mildew (%) (wheat powdery mildew; 400 mg/L, protectant activity)
98%: control effect against cucumber downy mildew (%) (cucumber downy mildew; 400 mg/L, protectant activity)
80%: control effect against cucumber downy mildew (%) (cucumber downy mildew; 50 mg/L, protectant activity)
50%: control effect against corn rust (%) (corn rust; 400 mg/L, protectant activity)
17%: Insecticidal activity against armyworm (%) (armyworm; 600 mg/L)
75%: control effect against cucumber downy mildew (%) (cucumber downy mildew; 25 mg/L, protectant activity)
54%: Insecticidal activity against carmine spider mite (% ) (carmine spider mite; 600 mg/L, contrastive test)
95%: control effect against cucumber downy mildew (%) (cucumber downy mildew; 100 mg/L, protectant activity)

CCc1ncnc(NCCc2ccc(Oc3ccc(C(F)(F)F)cn3)cc2)c1Cl [Compound I-6740]
100%: pest or weed control at 100 ppm (cucumber downy mildew; Cucumis sativus, 168 h, read-out: protectant activity against cucumber downy mildew in vivo, 100 ppm) | pest or weed control at 400 ppm (cucumber downy mildew; Cucumis sativus, 168 h, read-out: protectant activity against cucumber downy mildew in vivo, 400 ppm) | control (test results against armyworm) (armyworm; 100 ppm) | control (test results against armyworm) (armyworm; 600 ppm) | protectant activity against corn rust in vivo (corn rust; 100 ppm) | protectant activity against corn rust in vivo (corn rust; 400 ppm) | control (test results against diamond back moth) (Diamond back moth; 100 ppm) | control (test results against diamond back moth) (Diamond back moth; 600 ppm) | control (test results against green peach aphid) ([1]; 5 ppm) | control (test results against green peach aphid) ([1]; 10 ppm) | control (test results against green peach aphid) ([1]; 100 ppm) | control (test results against green peach aphid) ([1]; 600 ppm) | protectant activity against wheat powdery mildew in vivo (wheat powdery mildew; 25 ppm) | protectant activity against wheat powdery mildew in vivo (wheat powdery mildew; 100 ppm) | protectant activity against wheat powdery mildew in vivo (wheat powdery mildew; 400 ppm) | Insecticidal activity against carmine spider mite (% ) (carmine spider mite; 100 mg/L, contrastive test) | Insecticidal activity against carmine spider mite (% ) (carmine spider mite; 600 mg/L, contrastive test) | control against carmine spider mite (carmine spider mite; [3]) | control against carmine spider mite (carmine spider mite; [2])
80 to 99%: pest or weed control at 10 ppm (carmine spider mite; Tetranychus cinnabarinus, 72 h, 10 ppm, mortality after 72 hrs)
85%: Insecticidal activity against carmine spider mite (% ) (carmine spider mite; 10 mg/L, contrastive test)

CCc1ncnc(NCCc2ccc(Oc3ccc(C)cc3)nc2)c1Cl [III-196]
85%: control effect against cucumber downy mildew (%) (cucumber downy mildew; 6.25 mg/L, protectant activity) | control effect against cucumber downy mildew (%) (cucumber downy mildew; 12.5 mg/L, protectant activity)
100%: control effect against cucumber downy mildew (%) (cucumber downy mildew; 25 mg/L, protectant activity) | control effect against cucumber downy mildew (%) (cucumber downy mildew; 50 mg/L, protectant activity) | control effect against cucumber downy mildew (%) (cucumber downy mildew; 100 mg/L, protectant activity) | control effect against cucumber downy mildew (%) (cucumber downy mildew; 400 mg/L, protectant activity) | protectant activity against cucumber downy mildew in vivo (cucumber downy mildew; 25 ppm) | protectant activity against cucumber downy mildew in vivo (cucumber downy mildew; 50 ppm) | protectant activity against cucumber downy mildew in vivo (cucumber downy mildew; 100 ppm) | protectant activity against cucumber downy mildew in vivo (cucumber downy mildew; 400 ppm) | control (test results against armyworm) (armyworm; 600 ppm) | protectant activity against corn rust in vivo (corn rust; 400 ppm) | Insecticidal activity against diamond back moth (%) (Diamond back moth; 100 mg/L) | Insecticidal activity against diamond back moth (%) (Diamond back moth; 600 mg/L) | control (test results against diamond back moth) (Diamond back moth; 100 ppm) | control (test results against diamond back moth) (Diamond back moth; 600 ppm) | control (test results against green peach aphid) ([1]; 100 ppm) | control (test results against green peach aphid) ([1]; 600 ppm) | protectant activity against wheat powdery mildew in vivo (wheat powdery mildew; 400 ppm) | control against carmine spider mite (carmine spider mite; [2])

FC(F)c1ncnc(NCCc2ccc(Oc3ccccc3)nc2)c1Cl [III-541]
100%: control effect against cucumber downy mildew (%) (cucumber downy mildew; 6.25 mg/L, protectant activity) | control effect against cucumber downy mildew (%) (cucumber downy mildew; 12.5 mg/L, protectant activity) | control effect against cucumber downy mildew (%) (cucumber downy mildew; 25 mg/L, protectant activity) | control effect against cucumber downy mildew (%) (cucumber downy mildew; 50 mg/L, protectant activity) | control effect against cucumber downy mildew (%) (cucumber downy mildew; 100 mg/L, protectant activity) | control effect against cucumber downy mildew (%) (cucumber downy mildew; 400 mg/L, protectant activity) | protectant activity against cucumber downy mildew in vivo (cucumber downy mildew; 6.25 ppm) | protectant activity against cucumber downy mildew in vivo (cucumber downy mildew; 12.5 ppm) | protectant activity against cucumber downy mildew in vivo (cucumber downy mildew; 25 ppm) | protectant activity against cucumber downy mildew in vivo (cucumber downy mildew; 50 ppm) | protectant activity against cucumber downy mildew in vivo (cucumber downy mildew; 100 ppm) | protectant activity against cucumber downy mildew in vivo (cucumber downy mildew; 400 ppm) | control (test results against armyworm) (armyworm; 600 ppm) | protectant activity against corn rust in vivo (corn rust; 400 ppm) | control (test results against diamond back moth) (Diamond back moth; 600 ppm) | control (test results against green peach aphid) ([1]; 100 ppm) | control (test results against green peach aphid) ([1]; 600 ppm) | protectant activity against wheat powdery mildew in vivo (wheat powdery mildew; 400 ppm) | control against carmine spider mite (carmine spider mite; [2])
95%: control effect against cucumber downy mildew (%) (cucumber downy mildew; 3.125 mg/L, protectant activity)

CCc1ncnc(NCCc2ccc(Oc3ccccc3)nc2)c1Cl [III-181]
100%: control effect against cucumber downy mildew (%) (cucumber downy mildew; 25 mg/L, protectant activity) | control effect against cucumber downy mildew (%) (cucumber downy mildew; 50 mg/L, protectant activity) | control effect against cucumber downy mildew (%) (cucumber downy mildew; 100 mg/L, protectant activity) | control effect against cucumber downy mildew (%) (cucumber downy mildew; 400 mg/L, protectant activity) | protectant activity against cucumber downy mildew in vivo (cucumber downy mildew; 25 ppm) | protectant activity against cucumber downy mildew in vivo (cucumber downy mildew; 50 ppm) | protectant activity against cucumber downy mildew in vivo (cucumber downy mildew; 100 ppm) | protectant activity against cucumber downy mildew in vivo (cucumber downy mildew; 400 ppm) | control (test results against armyworm) (armyworm; 600 ppm) | protectant activity against corn rust in vivo (corn rust; 400 ppm) | control (test results against diamond back moth) (Diamond back moth; 600 ppm) | Insecticidal activity against peach aphid (%) ([1]; 10 mg/L, contrastive test) | Insecticidal activity against peach aphid (%) ([1]; 100 mg/L, contrastive test) | Insecticidal activity against peach aphid (%) ([1]; 600 mg/L, contrastive test) | control (test results against green peach aphid) ([1]; 10 ppm) | control (test results against green peach aphid) ([1]; 100 ppm) | control (test results against green peach aphid) ([1]; 600 ppm) | protectant activity against wheat powdery mildew in vivo (wheat powdery mildew; 400 ppm) | Insecticidal activity against carmine spider mite (% ) (carmine spider mite; 100 mg/L, contrastive test) | Insecticidal activity against carmine spider mite (% ) (carmine spider mite; 600 mg/L, contrastive test) | control against carmine spider mite (carmine spider mite; [3]) | control against carmine spider mite (carmine spider mite; [2])
